Test results reported in PMC5662078, “Doliroside A from Dolichos falcata Klein suppressing amyloid β-protein 42 fibrillogenesis: An insight at molecular level” (PLoS ONE, 2017).

Molecular target: T1, amyloid β-protein 42 (Aβ42) (Homo sapiens, UniProt P05067)
T1 construct: gene APP
Assay: ThT fluorescence fibrillation assay of synthetic Aβ[…]); supported by DSC Tm shifts, CD and AFM
Assay type: biochemical

T1 sequence (P05067 672-713): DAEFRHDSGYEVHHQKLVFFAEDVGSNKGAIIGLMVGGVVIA

Question: How did the IC50 turn out when `COC(=O)[C@]1(C)C(OC2OC(CO)C(O)C(O)C2O)[C@@H](O)C[C@@]2(C)C1CC[C@]1(C)C2CC=C2[C@@H]3CC(C)(C)CCC3(C(=O)O)CC[C@]21C` (stereo partly shown) [DA, doliroside A] was run?
Answer: The IC50 was 26.6 ± 1.6 µM.
